Experimental data as given in patent US8410178B2, “CIS 3,4-dihydroxy-2-(3-methylbutanoyl)-5-(3-methylbutyl)-4-(4-methylpentanoyl)cyclopent-2-en-1-derivatives, substantially enantiomerically pure compositions and methods” (KinDex Therapeutics, LLC, priority 2010, dated 2013).

How the values were obtained:
[1] = molecular target: T1, PPARγ (Homo sapiens, UniProt P37231); test: PPARγ luciferase reporter assay; type: cell-based
T1 sequence (P37231 1-505): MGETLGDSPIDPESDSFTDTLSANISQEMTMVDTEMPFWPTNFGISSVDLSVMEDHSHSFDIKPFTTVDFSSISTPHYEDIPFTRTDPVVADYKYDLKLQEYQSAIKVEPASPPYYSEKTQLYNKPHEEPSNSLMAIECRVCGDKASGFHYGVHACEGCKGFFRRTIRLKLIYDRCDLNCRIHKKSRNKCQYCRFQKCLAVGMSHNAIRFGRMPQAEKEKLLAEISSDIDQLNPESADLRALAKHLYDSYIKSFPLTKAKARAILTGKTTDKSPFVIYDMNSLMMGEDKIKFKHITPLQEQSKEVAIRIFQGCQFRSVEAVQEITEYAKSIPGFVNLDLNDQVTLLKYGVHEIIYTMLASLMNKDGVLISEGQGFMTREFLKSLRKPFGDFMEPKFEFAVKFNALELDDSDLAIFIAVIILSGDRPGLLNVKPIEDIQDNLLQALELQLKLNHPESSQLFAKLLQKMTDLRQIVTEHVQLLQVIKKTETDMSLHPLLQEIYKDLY
Description: (§1) The functional effect of (+)-KDT501 on PPARα, PPARδ, and PPARγ activity was evaluated using a PPAR reporter assay (INDIGO Biosciences, PA). This assay utilizes non-human mammalian cells engineered to provide constitutive high level expression of PPARα, PPARδ, or PPARγ and containing a luciferase report gene specific to the appropriate PPAR. Following activation by agonist binding, PPAR induces expression of the luciferase reporter gene. Luciferase activity therefore provides a surrogate for measuring PPAR activity in agonist-treated cells.
(§2) Reporter cells were plated on a 96-well plate at 100 μL per well, and 100 μL of (+)-KDT501 at various final concentrations (25, 12.5, 6.25, 3.125, 1.56 and 0.78 μM) was added to each well. […] 0.1% DMSO was also used as a negative control for each assay. Plates are incubated for 20 hours in a humidified incubator at 37° C. and 5% CO2. After incubation, cell medium was discarded and the cells were treated with 100 μL of luciferase detection reagent for 15 minutes. Plates were analyzed using a luminometer (Victor2, Perkin Elmer). Average relative light unit (RLU) and standard deviation were analyzed using GraphPad Prism.
The PPAR activity assays were repeated as described above using both (+)-KDT501(12.5, 6.25, 3.125, 1.56, and 0.78 μM) and (−)-KDT501 (25, 12.5, 6.25, 3.125, 1.56, and 0.78 μM).

[2] = molecular target: T2, peroxisome proliferator-activated receptor gamma (PPARγ) (Homo sapiens, UniProt P37231); test: Competitive binding to PPARγ ([3H]rosiglitazone)
T2 sequence (P37231 1-505): T1 sequence (P37231 1-505)

[3] = molecular target: T3, PPARα (Homo sapiens, UniProt Q07869); test: PPARα luciferase reporter assay; type: cell-based; settings: reporter cells, 20 hours
T3 sequence (Q07869 1-468): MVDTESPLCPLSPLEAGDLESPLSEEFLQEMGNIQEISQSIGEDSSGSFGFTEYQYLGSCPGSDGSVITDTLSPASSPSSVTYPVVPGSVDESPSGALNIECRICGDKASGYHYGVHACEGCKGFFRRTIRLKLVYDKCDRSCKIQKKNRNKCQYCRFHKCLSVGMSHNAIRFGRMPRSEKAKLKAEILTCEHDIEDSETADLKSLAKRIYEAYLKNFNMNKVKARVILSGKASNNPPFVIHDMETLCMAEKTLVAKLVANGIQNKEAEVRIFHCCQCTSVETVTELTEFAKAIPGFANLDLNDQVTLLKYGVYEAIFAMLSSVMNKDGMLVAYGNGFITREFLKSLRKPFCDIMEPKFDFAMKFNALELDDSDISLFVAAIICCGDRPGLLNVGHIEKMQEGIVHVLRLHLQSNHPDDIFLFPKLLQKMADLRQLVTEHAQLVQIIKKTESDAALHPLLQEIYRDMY
Description: as §1, §2

[4] = test system: diet induced obese (DIO) mice; test: Glucose, insulin, HbA1C and fat mass in high fat diet-induced obesity (DIO) mouse model; type: in vivo
Description: 14 week-old male mice were randomized and divided into seven dosing groups with 16 animals in each group: 1) vehicle only (0.5% methylcellulose (w/v), 0.2% Tween 80 (w/v); negative control), 2) (+)-KDT501 25 mg/kg, 3) (+)-KDT501 50 mg/kg, 4) (+)-KDT501 100 mg/kg, 5) (+)-KDT501 200 mg/kg, 6) metformin 200 mg/kg (positive control), and 7) pioglitazone 30 mg/kg (positive control). Drugs were administered orally twice a day for 30 days.
Animals were weighed at randomization and once per week thereafter, with administration dosages calculated based on the most recent body weight measurements. The mice were maintained on a high fat diet (40% Kcal) (TD95217; prepared by Covance Laboratories, Greenfield, Ind.). Body composition was tested by qNMR on days −5 and 28 after the start of treatment. […]. An oral glucose tolerance test (OGTT) was performed on day 30 after the start of treatment. Mice underwent an overnight fast prior to OGTT, and tail bleeds for glucose and insulin were performed pre-glucose bolus and at 15, 30, 60, 90, and 120 minutes post-glucose bolus. The glucose bolus was 2 g dextrose/kg of body weight. OGTT results were evaluated by area under the curve (AUC) measurements and Dunnett's test.

[5] = molecular target: T4, angiotensin II receptor type II (AGTR2) (Homo sapiens, UniProt P50052); test: Competitive binding to AGTR2 ([125I]CGP 42112A); settings: binding target AGTR2; competitor ligand Angiotensin-II
T4 sequence (P50052 1-363): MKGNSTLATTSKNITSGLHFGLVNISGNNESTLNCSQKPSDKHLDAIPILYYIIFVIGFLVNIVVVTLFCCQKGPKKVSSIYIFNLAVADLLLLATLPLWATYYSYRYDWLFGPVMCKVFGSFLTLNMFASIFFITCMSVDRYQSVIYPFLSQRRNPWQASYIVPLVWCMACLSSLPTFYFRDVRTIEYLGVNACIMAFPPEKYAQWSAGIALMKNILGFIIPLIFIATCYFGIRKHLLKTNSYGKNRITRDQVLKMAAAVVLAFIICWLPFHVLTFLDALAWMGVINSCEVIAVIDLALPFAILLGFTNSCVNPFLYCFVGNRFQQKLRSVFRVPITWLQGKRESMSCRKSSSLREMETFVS

SMILES: CC(C)CCC(=O)[C@@]1(O)C(O)=C(C(=O)CC(C)C)C(=O)[C@@H]1CCC(C)C.[K] [(+)-KDT501, (+)-(4S,5R)-3,4-dihydroxy-2-(3-methylbutanoyl)-5-(3-methylbutyl)-4-(4-methylpentanoyl)cyclopent-2-en-1-one potassium salt]
- Fold difference in PPARγ reporter activity ([1]; (+)-KDT501 versus (−)-KDT501 at 3.13 μM): 3.9
- Fold difference in PPARγ reporter activity ([1]; (+)-KDT501 versus (−)-KDT501 at 6.25 μM): 6.7
- Fold difference in PPARγ reporter activity ([1]; (+)-KDT501 versus (−)-KDT501 at 12.5 μM): 6.8
- Fold difference in PPARγ reporter activity ([1]; (+)-KDT501 versus (−)-KDT501 at 25 μM): 3.2
- PPARγ reporter activity (RLU) ([1]; concentration of test compound 3.13 μM): 2122 RLU
- PPARγ reporter activity (RLU) ([1]; concentration of test compound 6.25 μM): 6536 RLU
- PPARγ reporter activity (RLU) ([1]; concentration of test compound 12.5 μM): 16451 RLU
- PPARγ reporter activity (RLU) ([1]; concentration of test compound 25 μM): 13419 RLU
- PPARγ activity ([1]; reporter cells, 20 hours): increased PPARγ activity in a statistically significant manner
- IC50 [2]: 8.4 µM
- Ki [2]: 4.5 µM
- nH ([2]; binding target PPARγ, competitor ligand Rosiglitazone): 1.1
- PPARα activity [3]: little or no effect
- insulin levels from the OGTT ([4]; 200 mg/kg orally twice a day, day 30): significant decrease
- blood glucose levels from the OGTT ([4]; 100 or 200 mg/kg orally twice a day, day 30): significant decrease
- fat mass ([4]; 100 or 200 mg/kg orally twice a day, qNMR day 28): significant difference in fat mass versus negative control mice
- HbA1C ([4]; orally twice a day, day 29, dose not specified): trend towards HbA1C inhibition
- IC50 [5]: 14 µM
- Ki [5]: 7.1 µM
- nH [5]: 1.4
